From patent US11091419B2, “Preparation and purification of biphenyldicarboxylic acids” (ExxonMobil Chemical Patents Inc., priority 2017, dated 2021)

Experiment: solubility versus temperature in water (FIG. 2)
Format: physicochemical
Conditions: read from FIG. 2

For `O=C(O)c1ccc(-c2ccc(C(=O)O)cc2)cc1` [4,4′-BPDA, 4,4′-biphenyldicarboxylic acid], which “water solubility (BPDA loading in the aqueous phase)” value (320° C.) is on record?
The value was “ca. 10 wt %”.

And the “water solubility (BPDA loading in the aqueous phase)” value (340° C.)?
Its value is “ca. 20 wt %”.
